Measurements: patent US7026280B2, “LV V-Haemorphin-7 neuroactive peptide and methods of use” (Howard Florey Institute of Experimental Physiology, priority 1996, dated 2006)
pIC50: −log10 of the molar value. Where two headings read alike, the source gives them in different places. Where a SMILES comes first, the peptide text is derived from it. Side-chain parts run from the residue outwards. [ ]: non-standard residue; d: D form. The star is where a group is joined. Nicotinoyl = O=C(c1cccnc1)*; Nle = CCCC[C@H](N)C(=O)O; Cbz = O=C(OCc1ccccc1)*

Key:
AT4 receptor [1] = experiment: Competition for [125I]Ang IV binding on prefrontal cortical brain sections (in vitro receptor autoradiography); parameters: species or system Macaca fascicularis; conditions: for pIC50: monkey prefrontal cortical sections, read-out: IC50 for competing for [125I]Ang IV binding; for Competition for [125I]Ang IV binding: even at concentrations of 10 mM
[2] = system: embryonic chicken sympathetic neurons
AT4 receptor [3] = target: T1, AT4 receptor (Ovis aries, UniProt A0ACI6PQ17); experiment: Competition for [125I]Ang IV binding to sheep cerebellar cortical membranes
[4] = system: scopolamine-induced amnesia
AT4 receptor [5] = target: T1, AT4 receptor; experiment: Competition for [125I]LVV-haemorphin-7 binding to sheep cerebellar cortical membranes; conditions: read-out: IC50 for competing for 125I-LVV-haemorphin-7 binding
AT4 receptor sites = experiment: Cross-displacement of [125I]LVV-haemorphin-7 and [125I]Ang IV binding on sheep hindbrain sections
Procedure: Sheep hindbrain sections were used to compare the distribution of ^125I-LVV-haemorphin-7 binding and AT4 receptor sites. Sections at 10 μm thickness were equilibrated to 22° C. (30 min), and then preincubated for 30 min in an isotonic buffer containing 50 mM Tris, 150 mM sodium chloride, 5 mM EDTA, 100 μM phenylmethylsulfonyl fluoride, 20 μM bestatin and 0.1% bovine serum albumin, pH 7.4, before a further 2 h incubation in the same buffer containing 2.84 μCi of [^125I]LVV-haemorphin-7 or [125I]Ang IV (approximately 140 pM). The binding of the radioligands was cross-displaced with either 1 μM unlabelled LVV-haemorphin-7 or Ang IV. After incubation, the sections were given three 2 min washes in buffer at 4° C., and exposed to X-ray film for 14 to 28 d.

[6] = system: scopolamine-induced amnesia; conditions: rat, in vivo
[7] = target: Ang IV binding site (AT4 receptor) (Homo sapiens, UniProt Q9UIQ6); conditions: literature; cited from earlier work
[8] = target: T2, embryonic chicken Ang IV binding site (AT4 receptor) (Gallus gallus, UniProt F1NNE7); experiment: Competition for [125I]Ang IV binding to E13 chicken chorioallantoic membranes; conditions: for Concentration at which only 50% of the [125I]Ang IV sites were competed for: E13 chicken CAM, only 50% of the sites
T2 sequence (F1NNE7 1-1024): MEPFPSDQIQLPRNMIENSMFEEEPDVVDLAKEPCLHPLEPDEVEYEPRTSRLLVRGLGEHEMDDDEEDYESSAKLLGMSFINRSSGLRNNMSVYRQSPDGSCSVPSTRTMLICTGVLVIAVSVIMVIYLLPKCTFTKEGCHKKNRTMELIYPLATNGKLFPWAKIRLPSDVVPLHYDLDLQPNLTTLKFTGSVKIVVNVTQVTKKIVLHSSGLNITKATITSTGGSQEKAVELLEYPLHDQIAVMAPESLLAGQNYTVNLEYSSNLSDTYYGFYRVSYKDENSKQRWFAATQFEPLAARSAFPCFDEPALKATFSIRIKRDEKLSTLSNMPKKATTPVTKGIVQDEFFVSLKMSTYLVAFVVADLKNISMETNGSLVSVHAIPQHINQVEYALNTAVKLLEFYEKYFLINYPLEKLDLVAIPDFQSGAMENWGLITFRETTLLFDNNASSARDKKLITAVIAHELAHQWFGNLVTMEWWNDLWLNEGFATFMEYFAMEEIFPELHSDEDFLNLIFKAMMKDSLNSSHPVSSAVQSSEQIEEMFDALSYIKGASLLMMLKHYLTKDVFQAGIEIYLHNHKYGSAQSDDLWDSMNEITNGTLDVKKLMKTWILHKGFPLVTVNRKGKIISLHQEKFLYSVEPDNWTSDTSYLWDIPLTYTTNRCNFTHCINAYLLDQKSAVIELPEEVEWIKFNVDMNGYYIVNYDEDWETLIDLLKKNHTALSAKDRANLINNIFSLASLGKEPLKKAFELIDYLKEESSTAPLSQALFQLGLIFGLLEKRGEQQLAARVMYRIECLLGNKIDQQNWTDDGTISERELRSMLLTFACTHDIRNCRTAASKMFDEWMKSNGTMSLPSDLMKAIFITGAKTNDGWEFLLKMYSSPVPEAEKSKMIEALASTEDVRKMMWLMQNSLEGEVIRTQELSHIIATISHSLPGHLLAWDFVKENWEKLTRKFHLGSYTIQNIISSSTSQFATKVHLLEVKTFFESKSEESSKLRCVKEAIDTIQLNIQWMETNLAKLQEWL

AT4 receptor [9] = conditions: literature; mediated via the AT4 receptor; cited from earlier work
[10] = 10^−8 M Ang II, test substance 1 μM
[11] = 10^−8 M Ang IV, test substance 1 μM

Ang IV binding site (AT4 receptor), sequence (Q9UIQ6 whole entry): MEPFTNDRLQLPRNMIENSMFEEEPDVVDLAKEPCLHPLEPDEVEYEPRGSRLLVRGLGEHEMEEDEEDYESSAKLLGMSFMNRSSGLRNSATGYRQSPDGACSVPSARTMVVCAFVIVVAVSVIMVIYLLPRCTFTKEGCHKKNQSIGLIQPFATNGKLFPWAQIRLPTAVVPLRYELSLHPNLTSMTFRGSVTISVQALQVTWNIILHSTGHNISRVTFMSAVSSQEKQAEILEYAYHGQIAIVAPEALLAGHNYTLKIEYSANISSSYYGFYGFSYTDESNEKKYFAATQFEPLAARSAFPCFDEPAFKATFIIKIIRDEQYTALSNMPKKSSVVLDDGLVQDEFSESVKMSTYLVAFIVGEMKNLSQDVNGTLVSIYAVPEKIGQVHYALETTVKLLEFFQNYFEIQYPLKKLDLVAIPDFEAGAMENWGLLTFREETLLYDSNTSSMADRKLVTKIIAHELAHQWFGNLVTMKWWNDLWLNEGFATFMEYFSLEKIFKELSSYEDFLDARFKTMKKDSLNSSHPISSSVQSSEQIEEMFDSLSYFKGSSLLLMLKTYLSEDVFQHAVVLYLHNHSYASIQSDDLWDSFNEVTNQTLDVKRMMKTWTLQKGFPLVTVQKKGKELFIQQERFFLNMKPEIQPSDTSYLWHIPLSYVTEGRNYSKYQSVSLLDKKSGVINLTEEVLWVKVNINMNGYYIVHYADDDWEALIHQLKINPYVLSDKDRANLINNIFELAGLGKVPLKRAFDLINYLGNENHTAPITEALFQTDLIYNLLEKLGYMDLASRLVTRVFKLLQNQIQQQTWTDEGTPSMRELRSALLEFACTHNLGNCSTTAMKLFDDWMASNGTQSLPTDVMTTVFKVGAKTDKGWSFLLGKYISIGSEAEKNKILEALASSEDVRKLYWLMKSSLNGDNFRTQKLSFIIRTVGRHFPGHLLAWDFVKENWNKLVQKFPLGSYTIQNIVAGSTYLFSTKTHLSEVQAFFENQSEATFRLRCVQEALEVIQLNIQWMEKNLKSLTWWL
T1 sequence (A0ACI6PQ17 1-1050): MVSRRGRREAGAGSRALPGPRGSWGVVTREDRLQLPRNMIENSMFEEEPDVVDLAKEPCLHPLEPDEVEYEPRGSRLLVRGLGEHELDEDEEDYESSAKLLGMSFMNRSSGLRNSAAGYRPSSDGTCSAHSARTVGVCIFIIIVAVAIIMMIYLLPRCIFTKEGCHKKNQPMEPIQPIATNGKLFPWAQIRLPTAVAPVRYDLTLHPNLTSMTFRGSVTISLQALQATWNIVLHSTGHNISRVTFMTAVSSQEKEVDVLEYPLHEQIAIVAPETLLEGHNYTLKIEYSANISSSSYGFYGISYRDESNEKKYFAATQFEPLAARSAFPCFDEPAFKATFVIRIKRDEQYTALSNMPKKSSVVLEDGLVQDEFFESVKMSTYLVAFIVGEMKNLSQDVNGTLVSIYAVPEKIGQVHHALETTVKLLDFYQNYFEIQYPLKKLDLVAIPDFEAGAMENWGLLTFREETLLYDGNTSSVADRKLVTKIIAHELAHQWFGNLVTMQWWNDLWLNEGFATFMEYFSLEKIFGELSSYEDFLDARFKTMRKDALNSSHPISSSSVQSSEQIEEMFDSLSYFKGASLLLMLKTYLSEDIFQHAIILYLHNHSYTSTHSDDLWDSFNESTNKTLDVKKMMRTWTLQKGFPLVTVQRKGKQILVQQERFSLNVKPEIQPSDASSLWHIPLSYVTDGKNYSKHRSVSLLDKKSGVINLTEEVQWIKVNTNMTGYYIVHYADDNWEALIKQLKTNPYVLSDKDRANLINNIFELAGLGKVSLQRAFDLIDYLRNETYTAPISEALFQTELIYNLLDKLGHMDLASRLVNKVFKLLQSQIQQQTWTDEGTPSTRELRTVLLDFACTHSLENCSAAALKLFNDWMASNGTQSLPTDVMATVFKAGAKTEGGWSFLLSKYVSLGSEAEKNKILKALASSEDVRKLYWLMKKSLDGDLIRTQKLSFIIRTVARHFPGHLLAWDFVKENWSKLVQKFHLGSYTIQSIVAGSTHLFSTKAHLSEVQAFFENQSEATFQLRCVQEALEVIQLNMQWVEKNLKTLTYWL

Compound: CC[C@H](C)[C@H](NC(=O)[C@H](Cc1ccc(O)cc1)NC(=O)[C@@H](NC(=O)[C@H](CCCNC(=N)N)NC(=O)[C@@H](N)CC(=O)O)C(C)C)C(=O)N[C@@H](Cc1c[nH]cn1)C(=O)N1CCC[C@H]1C(=O)N[C@@H](Cc1ccccc1)C(=O)O [Ang II]
- pIC50 (AT4 receptor [1]): 6.14
- Inhibition of neurite outgrowth [2]: 25%

Compound: LVVYPWTQRF [LVV-haemorphin-7]
- pIC50 (AT4 receptor [3]; read-out: IC50 for competing for [125I]Ang IV binding): 8.70
- Effect on scopolamine-induced amnesia (latency to enter dark compartment) ([4]; 70 nmol scopolamine followed by 1.0 nmol peptide, intracerebroventricularly): completely reversed
- Passive avoidance performance, substance alone ([4]; saline followed by 1.0 nmol, intracerebroventricularly): performed worse than the scopolamine-treated rats
- pIC50 (AT4 receptor [5]): 8.25
- Displacement of [125I]LVV-haemorphin-7 and [125I]Ang IV binding (AT4 receptor sites): displaced
- Effect on scopolamine-induced latency in finding the platform [6]: totally reversed

Compound: CC[C@H](C)[C@H](NC(=O)[C@H](Cc1ccc(O)cc1)NC(=O)[C@@H](NC(=O)[C@@H](N)CCCNC(=N)N)C(C)C)C(=O)N[C@@H](Cc1c[nH]cn1)C(=O)N1CCC[C@H]1C(=O)N[C@@H](Cc1ccccc1)C(=O)O [Ang III]
- pIC50 (AT4 receptor [1]): 7.10

Compound: CCCCc1nc(Cl)c(CO)n1Cc1ccc(-c2ccccc2-c2nn[nH]n2)cc1 [losartan]
- Competition for [125I]Ang IV binding (AT4 receptor [1]): inactive
- Effect on the inhibition of neurite outgrowth by Ang II [2, 10]: ineffective
- Effect on the inhibition of neurite outgrowth by Ang IV [2, 11]: no effect
- Affinity of the Ang IV site for the ligand [7]: low to very low affinity

Compound: CC[C@H](C)[C@H](NC(=O)[C@@H]1CCCN1C(=O)[C@H](Cc1c[nH]cn1)NC(=O)[C@@H](NC(=O)[C@H](Cc1ccc(O)cc1)NC(=O)[C@@H](NC(=O)[C@H](CCCNC(=N)N)NC(=O)CNC)C(C)C)[C@@H](C)CC)C(=O)O [[Sar^1Ile^8]Ang II]
- Effect on the inhibition of neurite outgrowth by Ang II [2]: ineffective
- Effect on the inhibition of neurite outgrowth by Ang IV [2]: no effect
- Concentration at which only 50% of the [125I]Ang IV sites were competed for [8]: 10 µM
- Affinity of the Ang IV site for the ligand [7]: low to very low affinity

Compound: Cc1cc(Cn2cnc3c2C[C@@H](C(=O)O)N(C(=O)C(c2ccccc2)c2ccccc2)C3)ccc1N(C)C [PD 123319]
- Competition for [125I]Ang IV binding (AT4 receptor [3]; at 10 μM): inactive
- Competition for [125I]Ang IV binding (AT4 receptor [1]): inactive
- Effect on the inhibition of neurite outgrowth by Ang II [2, 10]: ineffective
- Effect on the inhibition of neurite outgrowth by Ang IV [2, 11]: no effect
- Inhibition of [125I]Ang IV binding ([8]; at concentrations up to 10 μM): inactive
- pIC50 (AT4 receptor [5]; sheep cerebellar cortical membranes): 4.34
- Affinity of the Ang IV site for the ligand [7]: low to very low affinity

Compound: CC[C@H](C)[C@H](NC(=O)[C@@H]1CCCN1C(=O)[C@H](Cc1c[nH]cn1)NC(=O)[C@H](CCCCNC(=O)[C@H](CCCNC(=N)N)NC(=O)OCc1ccccc1)NC(=O)[C@H](Cc1ccc(O)cc1)NC(=O)c1cccnc1)C(=O)O [CGP 42112] (Nicotinoyl-YK([Arg-Cbz])HPI-OH; N-terminus and C-terminus assumed)
- Effect on the inhibition of neurite outgrowth by Ang II [2]: ineffective
- Effect on the inhibition of neurite outgrowth by Ang IV [2]: no effect
- Concentration at which only 50% of the [125I]Ang IV sites were competed for [8]: 0.5 µM

Compound: CCCC[C@H](N)C(=O)N[C@@H](Cc1ccc(O)cc1)C(=O)N[C@H](C(N)=O)[C@@H](C)CC [Nle^1-Y-I-amide] (H-[Nle]-Tyr-Ile-NH2; N-terminus assumed)
- Effect on the inhibition of neurite outgrowth by Ang IV [2]: totally reversed

Compound: CC[C@H](C)[C@H](NC(=O)[C@H](Cc1ccc(O)cc1)NC(=O)[C@@H](N)C(C)C)C(=O)N[C@@H](Cc1cnc[nH]1)C(=O)N1CCC[C@H]1C(=O)N[C@@H](Cc1ccccc1)C(=O)O [Ang IV, NH2-Val Tyr Ile His Pro Phe-COOH]
- Concentration of maximal effect on neurite outgrowth [2]: 10^−9 M
- Threshold concentration for inhibition of neurite outgrowth [2]: 10^−11 M
- pIC50 ([2]; read-out: Half maximal inhibition of neurite outgrowth): 10.00
- Effect on memory in a passive avoidance task (AT4 receptor [9]): improve memory retention and retrieval
- Displacement of [125I]LVV-haemorphin-7 and [125I]Ang IV binding (AT4 receptor sites; 1 μM unlabelled ligand, sheep hindbrain sections): displaced

Compound: CN1[C@@H]2C[C@@H](OC(=O)[C@H](CO)c3ccccc3)C[C@H]1[C@@H]1O[C@@H]12 [scopolamine]
- Passive avoidance performance after amnesic agent ([4]; 70 nmol intracerebroventricularly followed by saline): learning and memory deficits
- Latency in finding the platform after amnesic agent [6]: significantly increased latencies
